Patent publication US10125134B2 (Mirati Therapeutics, Inc., priority 2016, dated 2018)
pIC50: −log10 of the molar value. Read-outs that look alike come from different tables or passages of the source.

Experiments:
KRas G12C = KRas G12C (Homo sapiens, UniProt P01116, C118S/C51S/C80L/G12C); test: KRas G12C Modification Assay (LCMS detection of covalent adduct); assay type: binding; conditions: normalized percent of control; tested at 5 μM concentration for 3 hours
How it was run: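 Covalent modification was read by reverse-phase LC/MS of intact protein after compound exposure, each reaction stopped at its time point with 25 mM acetic acid. Unmodified-protein signal, taken as percent of total, was normalised to untreated protein and reported as POC.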

[1] = tested on: NCI-H358 cells (express KRas G12C), Phospho-ERK; test: Cellular inhibition of KRas G12C: Phospho-ERK in NCI-H358 cells; assay type: cell-based; conditions: pERK(Thr202/Tyr204) normalized with GAPDH, NCI-H358 cells, 3 hours, read-out: IC50
How it was run: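 IC50 derived by 4-parameter fit of GAPDH-normalized pERK(Thr202/Tyr204) signal, as percent of DMSO control. Signal came from in-cell immunodetection with infrared secondaries after 3 h compound exposure of KRas G12C NCI-H358 cells at 0.5% DMSO.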

| Structure (SMILES) | POC (KRas G12C) | pIC50 ([1]; Homo sapiens, NCI-H358, 3 h) | pIC50 ([1]; Homo sapiens) | pIC50 [1] |
| --- | --- | --- | --- | --- |
| C=CC(=O)N1CCN(c2nc(OC[C@@H]3CCCN3C)nc3c2CCN(c2cccc4cccc(F)c24)C3)C[C@@H]1CC#N [Example 338, 2-((S)-1-acryloyl-4-(7-(8-fluoronaphthalen-1-yl)-2-(((S)-1-methylpyrrolidin-2-yl)methoxy)-5,6,7,8-tetrahydropyrido[3,4-d]pyrimidin-4-yl)piperazin-2-yl)acetonitrile] | C (“C”>50% POC) | 6.00 to 10.00 | – | – |
| C=CC(=O)N1CCN(c2nc(O[C@@H]3CCCN(C)C3)nc3c2CCN(c2cc(O)cc4ccccc24)C3)CC1 [Example 67, (R)-1-(4-(7-(3-hydroxynaphthalen-1-yl)-2-((1-methylpiperidin-3-yl)oxy)-5,6,7,8-tetrahydropyrido[3,4-d]pyrimidin-4-yl)piperazin-1-yl)prop-2-en-1-one] | C (“C”>50% POC) | 6.00 to 10.00 | – | – |
| C=CC(=O)N1CCN(c2nc(OC[C@@H]3C[C@@H](F)CN3C)nc3c2CCN(c2cccc4ccccc24)C3)CC1CC#N (stereo partly drawn) [Example 220, 2-(1-acryloyl-4-(2-(((2 S,4R)-4-fluoro-1-methylpyrrolidin-2-yl)methoxy)-7-(naphthalen-1-yl)-5,6,7,8-tetrahydropyrido[3,4-d]pyrimidin-4-yl)piperazin-2-yl)acetonitrile] | C (“C”>50% POC) | – | 6.00 to 10.00 | – |
| C=CC(=O)N1C[C@H](C)N(c2nc(OC[C@@H]3CCCN3C)nc3c2CCN(c2cc(O)cc4ccccc24)C3)C[C@H]1C [Example 336, 1-[(2R,5S)-4-[7-(3-hydroxy-1-naphthyl)-2-[[(2S)-1-methylpyrrolidin-2-yl]methoxy]-6,8-dihydro-5H-pyrido[3,4-d]pyrimidin-4-yl]-2,5-dimethyl-piperazin-1-yl]prop-2-en-1-one] | C (“C”>50% POC) | 6.00 to 10.00 | – | – |
| C[C@H](CN(C)C)Oc1nc2c(c(N3CCN(C(=O)/C=C/CN(C)C)CC3)n1)CCN(c1cc(O)cc3ccccc13)C2 [Example 122, (R,E)-4-(dimethylamino)-1-(4-(2-((1-(dimethylamino)propan-2-yl)oxy)-7-(3-hydroxynaphthalen-1-yl)-5,6,7,8-tetrahydropyrido[3,4-d]pyrimidin-4-yl)piperazin-1-yl)but-2-en-1-one bis-trifluoroacetate] | C (“C”>50% POC) | – | < 6.00 | – |
| C=CC(=O)N1CCN(c2nc(O[C@H](C)CN(C)C)nc3c2CCN(c2cc(O)cc4ccccc24)C3)CC1CC#N (stereo partly drawn) [Example 150, 2-(1-acryloyl-4-(2-(((R)-1-(dimethylamino)propan-2-yl)oxy)-7-(3-hydroxynaphthalen-1-yl)-5,6,7,8-tetrahydropyrido[3,4-d]pyrimidin-4-yl)piperazin-2-yl)acetonitrile] | C (“C”>50% POC) | 6.00 to 10.00 | – | – |
| C=CC(=O)N1CCN(c2nc(OCCCN3CCOCC3)nc3c2CCN(c2c(C)c(O)cc4ccccc24)C3)CC1 [Example 173, 1-(4-(7-(3-hydroxy-2-methylnaphthalen-1-yl)-2-(3-morpholinopropoxy)-5,6,7,8-tetrahydropyrido[3,4-d]pyrimidin-4-yl)piperazin-1-yl)prop-2-en-1-one] | C (“C”>50% POC) | – | < 6.00 | – |
| C=CC(=O)N1CCN(c2nc(OC[C@@H]3CCCN3C)nc3c2CCN(c2c(C)c(C)cc4[nH]ncc24)C3)C[C@@H]1CC#N [Example 459, 2-[(2S)-4-[7-(5,6-dimethyl-1H-indazol-4-yl)-2-[[(25)-1-methylpyrrolidin-2-yl]methoxy]-6,8-dihydro-5H-pyrido[3,4-d]pyrimidin-4-yl]-1-prop-2-enoyl-piperazin-2-yl]acetonitrile] | C (“C”>50% POC) | – | – | 6.00 to 10.00 |
| C=CC(=O)N1CCN(c2nc(OCC3CCN(CC(=O)N(C)C)C3)nc3c2CCN(c2cc(O)cc4ccccc24)C3)CC1 (centres unmarked) [Example 140, 2-[3-[[7-(3-hydroxy-1-naphthyl)-4-(4-prop-2-enoylpiperazin-1-yl)-6,8-dihydro-5H-pyrido[3,4-d]pyrimidin-2-yl]oxymethyl]pyrrolidin-1-yl]-N,N-dimethyl-acetamide] | C (“C”>50% POC) | < 6.00 | – | – |
| C=CC(=O)N1CCN(c2nc(OCCCN3CCC(OC)C3)nc3c2CCN(c2cc(O)cc4ccccc24)C3)CC1 (centres unmarked) [Example 137, 1-[4-[7-(3-hydroxy-1-naphthyl)-2-[3-(3-methoxypyrrolidin-1-yl)propoxy]-6,8-dihydro-5H-pyrido[3,4-d]pyrimidin-4-yl]piperazin-1-yl]prop-2-en-1-one] | C (“C”>50% POC) | < 6.00 | – | – |
| C=CC(=O)N1CCN(c2nc(OCCCN3C[C@@H]4C[C@H]3CO4)nc3c2CCN(c2cc(O)cc4ccccc24)C3)CC1 [Example 104, 1-(4-(2-(3-((1 S,4S)-2-oxa-5-azabicyclo[2.2.1]heptan-5-yl)propoxy)-7-(3-hydroxynaphthalen-1-yl)-5,6,7,8-tetrahydropyrido[3,4-d]pyrimidin-4-yl)piperazin-1-yl)prop-2-en-1-one] | C (“C”>50% POC) | 6.00 to 10.00 | – | – |
| C=CC(=O)N1CCN(c2nc(OCCN3CCCCC3)nc3c2CCN(c2c(C)ccc4[nH]ncc24)C3)CC1 [Example 164] | C (“C”>50% POC) | – | < 6.00 | – |
| C=CC(=O)N1CCN(c2nc(OCCCN3CCOCC3)nc3c2CCN(c2cc(O)cc4cccnc24)C3)CC1 [Example 205, 1-(4-(7-(6-hydroxyquinolin-8-yl)-2-(3-morpholinopropoxy)-5,6,7,8-tetrahydropyrido[3,4-d]pyrimidin-4-yl)piperazin-1-yl)prop-2-en-1-one] | C (“C”>50% POC) | – | < 6.00 | – |
| CN(C)C/C=C/C(=O)N1CCN(c2nc(OC[C@@H]3C[C@@H](O)CN3C)nc3c2CCN(c2cccc(F)c2C(F)(F)F)C3)C[C@@H]1CC#N [Example 342, 2-[(2S)-1-[(E)-4-(dimethylamino)but-2-enoyl]-4-[7-[3-fluoro-2-(trifluoromethyl)phenyl]-2-[[(2S,4R)-4-hydroxy-1-methyl-pyrrolidin-2-yl]methoxy]-6,8-dihydro-5H-pyrido[3,4-d]pyrimidin-4-yl]piperazin-2-yl]acetonitrile] | C (“C”>50% POC) | – | 6.00 to 10.00 | – |
| C=CC(=O)N1CCN(c2nc(OC[C@@H]3CCCN3CC3CC3)nc3c2CCN(c2cccc4ccccc24)C3)CC1CC#N (stereo partly drawn) [Example 395, 2-(1-acryloyl-4-(2-(((S)-1-(cyclopropylmethyl)pyrrolidin-2-yl)methoxy)-7-(naphthalen-1-yl)-5,6,7,8-tetrahydropyrido[3,4-d]pyrimidin-4-yl)piperazin-2-yl)acetonitrile] | C (“C”>50% POC) | 6.00 to 10.00 | – | – |
| C=CC(=O)N1CCN(c2nc(OC[C@@H]3CC(F)(F)CN3C)nc3c2CCN(c2cccc4ccccc24)C3)C[C@@H]1CC#N [Example 445, 2-((S)-1-Acryloyl-4-(2-(((S)-4,4-difluoro-1-methylpyrrolidin-2-yl)methoxy)-7-(naphthalen-1-yl)-5,6,7,8-tetrahydropyrido[3,4-d]pyrimidin-4-yl)piperazin-2-yl)acetonitrile] | C (“C”>50% POC) | 6.00 to 10.00 | – | – |
| C=CC(=O)N1CCN(c2nc(OC[C@@H]3C[C@@H](F)CN3C)nc3c2CCN(c2cc(O)cc4ccccc24)C3)CC1 [Example 357, 1-[4-[2-[[(2S,4R)-4-fluoro-1-methyl-pyrrolidin-2-yl]methoxy]-7-(3-hydroxy-1-naphthyl)-6,8-dihydro-5H-pyrido[3,4-d]pyrimidin-4-yl]piperazin-1-yl]prop-2-en-1-one] | A (“A”≤25% POC) | 6.00 to 10.00 | – | – |
| C=CC(=O)N1CCN(c2nc(OC[C@@H]3CCCN3C(C)C)nc3c2CCN(c2cccc4ccccc24)C3)C[C@@H]1CC#N [Example 320, 2-[(2S)-4-[2-[[(2S)-1-isopropylpyrrolidin-2-yl]methoxy]-7-(1-naphthyl)-6,8-dihydro-5H-pyrido[3,4-d]pyrimidin-4-yl]-1-prop-2-enoyl-piperazin-2-yl]acetonitrile] | C (“C”>50% POC) | 6.00 to 10.00 | – | – |
| C=CC(=O)N1CCN(c2nc(O[C@@H](C)CN(C)C)nc3c2CCN(c2cc(O)cc4ccccc24)C3)CC1 [Example 8, (S)-1-(4-(2-((1-(dimethylamino)propan-2-yl)oxy)-7-(3-hydroxynaphthalen-1-yl)-5,6,7,8-tetrahydropyrido[3,4-d]pyrimidin-4-yl)piperazin-1-yl)prop-2-en-1-one] | B (“B”>25% POC−≤50% POC) | < 6.00 | – | – |
| C=CS(=O)(=O)N1CCN(c2nc(OC[C@@H]3CCCN3C)nc3c2CCN(c2cccc(C)c2C)C3)CC1 [Example 343, (S)-7-(2,3-dimethylphenyl)-2-((1-methylpyrrolidin-2-yl)methoxy)-4-(4-(vinylsulfonyl)piperazin-1-yl)-5,6,7,8-tetrahydropyrido[3,4-d]pyrimidine] | C (“C”>50% POC) | < 6.00 | – | – |
| C=CC(=O)N1CCN(c2nc(OCCN(CC)CC)nc3c2CCN(c2c(C)ccc4[nH]ncc24)C3)CC1 [Example 163, 1-(4-(2-(2-(diethylamino)ethoxy)-7-(5-methyl-1H-indazol-4-yl)-5,6,7,8-tetrahydropyrido[3,4-d]pyrimidin-4-yl)piperazin-1-yl)prop-2-en-1-one] | C (“C”>50% POC) | – | < 6.00 | – |
| C=CC(=O)N1CCN(c2nc(OCCCO)nc3c2CCN(c2cc(O)cc4ccccc24)C3)CC1 [Example 184, 1-[4-[7-(3-hydroxy-1-naphthyl)-2-(3-hydroxypropoxy)-6,8-dihydro-5H-pyrido[3,4-d]pyrimidin-4-yl]piperazin-1-yl]prop-2-en-1-one] | C (“C”>50% POC) | < 6.00 | – | – |
